Assay results: patent publication US10870638B2, “Pyridazinone compound or its salt, and herbicide containing it” (ISHIHARA SANGYO KAISHA, LTD., priority 2016, dated 2020)

Assays:
Format in all cases: in vivo
Details in all cases: active ingredient amount 31 g/ha, 14th day after application
[1] = system: barnyardgrass (Echinochloa crus-qalli L.); test: Test Example 1: foliar treatment, growth inhibition rate on 14th day
Procedure, shortened: (§1)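 Using a small sprayer, formulated compound in water (0.1 vol % surfactant, 1,000 L/ha) was applied to seedlings grown from seed in upland soil. Fourteen days on, growth state was observed and expressed as percent inhibition from 0 to 100.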

corn (Zea mays L.) [2] = test: as above
Procedure, shortened: as §1

[3] = system: crabgrass (Digitaria sanquinalis L.); test: as above
Procedure, shortened: as §1

[4] = system: green foxtail (Setaria viridis L.); test: as above
Procedure, shortened: as §1

[5] = system: italian ryegrass (Lolium multiflorum Lam.); test: as above
Procedure, shortened: as §1

[6] = system: redroot pigweed (Amaranthus retroflexus L.); test: as above
Procedure, shortened: as §1

rice (Oryza sativa L.) [7] = test: as above
Procedure, shortened: as §1

[8] = system: soybean (Glycine max Merr.); test: as above
Procedure, shortened: as §1

[9] = system: wheat (Triticum aestivum L.); test: as above
Procedure, shortened: as §1

[10] = system: wild oat (Avena fatua L.); test: as above
Procedure, shortened: as §1

[11] = system: barnyardgrass (Echinochloa crus-qalli L.); test: Test Example 2: soil application on the day after sowing, growth inhibition rate on 14th day
Procedure, shortened: (§2)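 Herbicidal effect is assessed on pot-grown plants after a soil spray applied the day after sowing at prescribed active ingredient rates. Scoring occurs visually at day 14 as growth inhibition (%).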

corn (Zea mays L.) [12] = test: as above
Procedure, shortened: as §2

[13] = system: crabgrass (Digitaris sanquinalis L.); test: as above
Procedure, shortened: as §2

[14] = system: green foxtail (Setaria viridis L.); test: as above
Procedure, shortened: as §2

[15] = system: prickly sida (Sida spinosa L.); test: as above
Procedure, shortened: as §2

[16] = system: redroot pigweed (Amaranthus retroflexus L.); test: as above
Procedure, shortened: as §2

rice (Oryza sativa L.) [17] = test: as above
Procedure, shortened: as §2

[18] = system: soybean (Glycine max Merr.); test: as above
Procedure, shortened: as §2

[19] = system: velvetleaf (Abutilon theophrasti MEDIC.); test: as above
Procedure, shortened: as §2

[20] = system: wheat (Triticum aestivum L.); test: as above
Procedure, shortened: as §2

[21] = visual, 0 = non-treated, 100 = complete kill

| Compound | Growth inhibition rate (%) Barnyardgrass [1] [%] | Growth inhibition rate (%) Corn (corn (Zea mays L.) [2]) [%] | Growth inhibition rate (%) Crabgrass [3] [%] | Growth inhibition rate (%) Green foxtail [4] [%] | Growth inhibition rate (%) Italian ryegrass [5] [%] | Growth inhibition rate (%) Redroot pigweed [6] [%] | Growth inhibition rate (%) Rice (rice (Oryza sativa L.) [7]) [%] | Growth inhibition rate (%) Soybean [8] [%] | Growth inhibition rate (%) Wheat [9] [%] | Growth inhibition rate (%) Wild oat [10] [%] | Growth inhibition rate (%) Barnyardgrass [11] [%] | Growth inhibition rate (%) Corn (corn (Zea mays L.) [12]) [%] | Growth inhibition rate (%) Crabgrass [13] [%] | Growth inhibition rate (%) Green foxtail [14] [%] | Growth inhibition rate (%) Prickly sida [15] [%] | Growth inhibition rate (%) Redroot pigweed [16] [%] | Growth inhibition rate (%) Rice (rice (Oryza sativa L.) [17]) [%] | Growth inhibition rate (%) Soybean [18] [%] | Growth inhibition rate (%) Velvetleaf [19] [%] | Growth inhibition rate (%) Wheat [20] [%] | other results |
| --- | --- | --- | --- | --- | --- | --- | --- | --- | --- | --- | --- | --- | --- | --- | --- | --- | --- | --- | --- | --- | --- |
| CCn1nc(C)c(O)c(-c2cc(Oc3nc4ccc(Cl)cc4o3)ccc2C)c1=O [Compound 2-176] | 100 | 80 | 99 | 100 | 85 | 0 | 10 | 0 | 0 | 25 | 100 | 0 | 98 | 99 | 0 | 0 | 60 | 0 | 0 | 0 | – |
| COCOc1c(C)nn(C)c(=O)c1-c1cc(Oc2ncc(C(F)(F)F)cc2Cl)ccc1C [1-132] | 100 | 99 | 100 | 100 | 98 | 0 | 88 | 20 | 98 | 98 | 99 | 10 | 93 | 98 | 0 | 0 | 0 | 0 | 0 | 0 | – |
| Cc1ccc(Oc2nc3ccc(F)cc3s2)cc1-c1c(O)c(C)nn(C)c1=O [Compound 2-155] | 78 | 10 | 40 | 60 | 10 | 0 | 0 | 0 | 25 | 0 | 85 | 0 | 83 | 88 | 0 | 0 | 70 | 0 | 0 | 0 | – |
| Cc1nn(C)c(=O)c(-c2cc(Oc3ncc(C(F)(F)F)cc3Cl)ccc2C2CC2)c1O [1-149] | 100 | 50 | 98 | 100 | 83 | 10 | 70 | 0 | 20 | 85 | 98 | 0 | 99 | 100 | 0 | 0 | 0 | 0 | 0 | 0 | – |
| Cc1ccc(Oc2ncc(C(F)(F)F)cc2Cl)cc1-c1c(OC(=O)OC(C)(C)C)c(C)nn(C)c1=O [1-59] | 100 | 98 | 100 | 100 | 98 | 0 | 40 | 0 | 93 | 99 | 100 | 0 | 100 | 99 | 0 | 0 | 20 | 0 | 0 | 0 | – |
| CCn1nc(C)c(O)c(-c2cc(Oc3cnc4cc(Cl)ccc4n3)ccc2C)c1=O [Compound 3-96] | – | – | – | – | – | – | – | – | – | – | 99 | 0 | 98 | 85 | 0 | 0 | 75 | 0 | 0 | 0 | Growth inhibition rate (%) Barnyardgrass [1, 21]: 100%; Growth inhibition rate (%) Corn (corn (Zea mays L.) [2]; [21]): 20%; Growth inhibition rate (%) Crabgrass [3, 21]: 100%; Growth inhibition rate (%) Green foxtail [4, 21]: 100%; Growth inhibition rate (%) Italian ryegrass [5, 21]: 99%; Growth inhibition rate (%) Redroot pigweed [6, 21]: 0%; Growth inhibition rate (%) Rice (rice (Oryza sativa L.) [7]; [21]): 95%; Growth inhibition rate (%) Soybean [8, 21]: 0%; Growth inhibition rate (%) Wheat [9, 21]: 95%; Growth inhibition rate (%) Wild oat [10, 21]: 98% |
| Cc1cc(C)c(-c2c(O)c(C)nn(C)c2=O)cc1Oc1ncc(C(F)(F)F)cc1Cl [1-14] | 98 | 70 | 93 | 98 | 85 | 0 | 80 | 0 | 0 | 95 | 99 | 0 | 83 | 93 | 0 | 0 | 0 | 0 | 0 | 0 | – |
| CCn1nc(C)c(OC(C)=O)c(-c2cc(Oc3cnc4cc(Cl)ccc4n3)ccc2C)c1=O [Compound 3-97] | – | – | – | – | – | – | – | – | – | – | 95 | 0 | 93 | 99 | 0 | 0 | 20 | 0 | 0 | 20 | Growth inhibition rate (%) Barnyardgrass [1, 21]: 100%; Growth inhibition rate (%) Corn (corn (Zea mays L.) [2]; [21]): 15%; Growth inhibition rate (%) Crabgrass [3, 21]: 100%; Growth inhibition rate (%) Green foxtail [4, 21]: 100%; Growth inhibition rate (%) Italian ryegrass [5, 21]: 99%; Growth inhibition rate (%) Redroot pigweed [6, 21]: 0%; Growth inhibition rate (%) Rice (rice (Oryza sativa L.) [7]; [21]): 75%; Growth inhibition rate (%) Soybean [8, 21]: 0%; Growth inhibition rate (%) Wheat [9, 21]: 95%; Growth inhibition rate (%) Wild oat [10, 21]: 100% |
| CC(=O)Oc1c(C)nn(C)c(=O)c1-c1cc(Oc2nc3ccc(Br)cc3s2)ccc1C [Compound 2-158] | 100 | 0 | 93 | 98 | 65 | 0 | 60 | 0 | 93 | 65 | 80 | 10 | 70 | 95 | 0 | 0 | 0 | 0 | 0 | 0 | – |
